# From ChEMBL document CHEMBL4251578, “Design, synthesis and biological evaluation of novel 2-aminobenzamides containing dithiocarbamate moiety as histone deacetylase inhibitors and potent antitumor agents” (Eur J Med Chem, 2018)
# How the values were obtained:
# MGC-803 [1] = assay: Antiproliferative activity against human MGC803 cells at 2 uM after 72 hrs by CCK-8 assay relative to control; format: functional; details: MGC-803, 72 h
# MGC-803 [2] = assay: Antiproliferative activity against human MGC803 cells at 8 uM after 72 hrs by CCK-8 assay relative to control; format: functional; details: MGC-803, 72 h
# A-375 [3] = assay: Antiproliferative activity against human A375 cells at 2 uM after 72 hrs by CCK-8 assay relative to control; format: functional; details: A-375, 72 h
# A-375 [4] = assay: Antiproliferative activity against human A375 cells at 8 uM after 72 hrs by CCK-8 assay relative to control; format: functional; details: A-375, 72 h
# HeLa [5] = assay: Antiproliferative activity against human HeLa cells at 2 uM after 72 hrs by CCK-8 assay relative to control; format: functional
# HeLa [6] = assay: Antiproliferative activity against human HeLa cells at 8 uM after 72 hrs by CCK-8 assay relative to control; format: functional
# A-375 [7] = assay: Antiproliferative activity against human A375 cells after 72 hrs by CCK-8 assay; format: functional, cell-based; details: A-375, 72 h
# MGC-803 [8] = assay: Antiproliferative activity against human MGC803 cells after 72 hrs by CCK-8 assay; format: functional, cell-based; details: MGC-803, 72 h
# SMMC-7721 = assay: Antiproliferative activity against human SMMC7721 cells after 72 hrs by CCK-8 assay; format: functional, cell-based; details: SMMC-7721, 72 h
# NCI-H1299 = assay: Antiproliferative activity against human NCI-H1299 cells after 72 hrs by CCK-8 assay; format: functional, cell-based; details: NCI-H1299, 72 h
# HCT-116 = assay: Antiproliferative activity against human HCT116 cells after 72 hrs by CCK-8 assay; format: functional, cell-based; details: HCT-116, 72 h
# HeLa [9] = assay: Antiproliferative activity against human HeLa cells after 72 hrs by CCK-8 assay; format: functional, cell-based
Compound,inhibition at 2 µM (MGC-803 [1]) [%],inhibition at 8 µM (MGC-803 [2]) [%],inhibition at 2 µM (A-375 [3]) [%],inhibition at 8 µM (A-375 [4]) [%],inhibition at 2 µM (HeLa [5]) [%],inhibition at 8 µM (HeLa [6]) [%],IC50 (A-375 [7]) [µM],IC50 (MGC-803 [8]) [µM],IC50 (SMMC-7721) [µM],IC50 (NCI-H1299) [µM],IC50 (HCT-116) [µM],IC50 (HeLa [9]) [µM]
Nc1ccccc1NC(=O)c1ccc(CSC(=S)N2CCN(c3ccc(F)cc3)CC2)cc1,18.8,48.7,20.9,76.3,60.8,64.5,9.4,17.2,> 32,0.98,2.73,
CN(Cc1cccnc1)C(=S)SCc1ccc(C(=O)Nc2ccccc2N)cc1,45.9,85.5,39.4,83.8,16.4,68.7,,,,,,
Nc1ccccc1NC(=O)c1ccc(CSC(=S)N2CCN(CCc3ccccc3)CC2)cc1,24.8,53.8,26.1,76.6,21.9,37,,,,,,
Nc1ccccc1NC(=O)c1ccc(CSC(=S)N2CCN(c3cnccn3)CC2)cc1,27.1,80.5,29.1,85.8,70.4,76.9,,,,,,
Nc1ccccc1NC(=O)c1ccc(CSC(=S)N2CCCc3ccccc32)cc1,38.5,87.5,26.5,81.5,26.1,35.7,,,,,,
Nc1ccccc1NC(=O)c1ccc(CSC(=S)N2CCN(c3ccc(Cl)cc3)CC2)cc1,15,17.2,32.2,29,51.2,44.8,,,,,,
Nc1ccccc1NC(=O)c1ccc(CSC(=S)N2CCN(Cc3ccccc3)CC2)cc1,18.1,19.7,10.6,29.3,20.6,31.3,,,,,,
COc1ccc(N2CCN(C(=S)SCc3ccc(C(=O)Nc4ccccc4N)cc3)CC2)cc1,25.3,22.9,28.1,35.9,39.4,52.3,,,,,,
Nc1ccccc1NC(=O)c1ccc(CSC(=S)N2CCN(c3ccccc3F)CC2)cc1,33.7,86.4,18.7,79.5,17.5,59.2,,,,,,
Nc1ccccc1NC(=O)c1ccc(CSC(=S)N2CCN(Cc3ccncc3)CC2)cc1,18.4,79.3,33.1,89.5,59.5,72.9,,,,,,
Nc1ccccc1NC(=O)c1ccc(CSC(=S)N(Cc2ccccc2)Cc2ccccc2)cc1,11,30.7,10.9,32.5,1,18.9,,,,,,
Nc1ccccc1NC(=O)c1ccc(CSC(=S)N2CCc3ccccc32)cc1,44,87,25.7,85.4,38,67,4.05,2.3,3.04,2.9,2.7,3.45
Nc1ccccc1NC(=O)c1ccc(CSC(=S)N2CCN(Cc3ccccn3)CC2)cc1,23.4,65.2,20.7,82.4,14.2,61.4,,,,,,
Nc1ccccc1NC(=O)c1ccc(CSC(=S)N2CCN(C3CCCCC3)CC2)cc1,16.9,75.3,31.7,89.9,30.6,76.1,,,,,,
Nc1ccccc1NC(=O)c1ccc(CSC(=S)N2CCN(c3ncccn3)CC2)cc1,28.4,64.8,24,67.9,52.2,73.9,,,,,,
Nc1ccccc1NC(=O)c1ccc(CSC(=S)N2CCc3cc([N+](=O)[O-])ccc32)cc1,26.8,33.2,16.9,29.5,32.6,43.6,,,,,,
